Measurements published in ChEMBL document CHEMBL4043269, “Synthesis and structure activity relationships of carbamimidoylcarbamate derivatives as novel vascular adhesion protein-1 inhibitors” (Bioorg Med Chem, 2017).

Key:
[1] = test system: Rattus norvegicus; assay: In vivo inhibition of VAP-1 in Wistar rat plasma at 0.3 mg/kg, po after 6 hrs in presence of [14C]-benzylamine by liquid scintillation counting analysis relative to control; type: functional
[2] = AUC in cynomolgus monkey at 0.2 mg/kg, iv by LC-MS/MS analysis; type: ADME, organism-based, Macaca fascicularis; details: in vivo
[3] = Cmax in Sprague-Dawley rat at 1 mg/kg, po by LC-MS/MS analysis; type: ADME, organism-based; set-up: dose 1 mg/kg, route oral; details: in vivo
[4] = Volume of distribution at steady state in cynomolgus monkey at 0.2 mg/kg, iv by LC-MS/MS analysis; type: ADME, organism-based, Macaca fascicularis; details: in vivo, read-out: Vdss
[5] = Half life in Sprague-Dawley rat at 1 mg/kg, iv by LC-MS/MS analysis; type: ADME, organism-based; details: in vivo
[6] = biological target: T1, CYP2C8 (Homo sapiens, UniProt P10632); assay: Inhibition of CYP2C8 in human liver microsomes using amodiaquine as substrate assessed as residual activity at 5 uM after 20 mins by HPLC analysis; type: ADME; details: probe amodiaquine, read-out: Activity
T1 sequence (P10632 whole entry): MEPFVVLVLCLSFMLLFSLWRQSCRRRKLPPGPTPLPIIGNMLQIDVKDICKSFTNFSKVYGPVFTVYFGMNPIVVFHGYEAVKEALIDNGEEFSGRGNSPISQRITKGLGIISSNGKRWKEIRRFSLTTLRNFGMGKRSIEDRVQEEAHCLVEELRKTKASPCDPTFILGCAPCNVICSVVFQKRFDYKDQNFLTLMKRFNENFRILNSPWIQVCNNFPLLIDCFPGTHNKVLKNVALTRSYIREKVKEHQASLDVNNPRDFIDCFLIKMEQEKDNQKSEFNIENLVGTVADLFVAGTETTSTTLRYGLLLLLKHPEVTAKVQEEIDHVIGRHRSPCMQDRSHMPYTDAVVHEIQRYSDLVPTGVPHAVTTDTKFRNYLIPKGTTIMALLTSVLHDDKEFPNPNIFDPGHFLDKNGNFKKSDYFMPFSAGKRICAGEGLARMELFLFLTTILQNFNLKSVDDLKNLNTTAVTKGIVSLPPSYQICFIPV

[7] = Total clearance in Beagle dog at 0.2 mg/kg, iv by LC-MS/MS analysis; type: ADME, organism-based, Canis lupus familiaris; details: in vivo
[8] = biological target: CYP2D6 (Homo sapiens, UniProt P10635); assay: Inhibition of CYP2D6 in human liver microsomes using dextromethorphan as substrate assessed as residual activity at 5 uM after 20 mins by HPLC analysis; type: ADME; details: probe dextromethorphan, read-out: Activity
Chain of CYP2D6 (P10635 whole entry): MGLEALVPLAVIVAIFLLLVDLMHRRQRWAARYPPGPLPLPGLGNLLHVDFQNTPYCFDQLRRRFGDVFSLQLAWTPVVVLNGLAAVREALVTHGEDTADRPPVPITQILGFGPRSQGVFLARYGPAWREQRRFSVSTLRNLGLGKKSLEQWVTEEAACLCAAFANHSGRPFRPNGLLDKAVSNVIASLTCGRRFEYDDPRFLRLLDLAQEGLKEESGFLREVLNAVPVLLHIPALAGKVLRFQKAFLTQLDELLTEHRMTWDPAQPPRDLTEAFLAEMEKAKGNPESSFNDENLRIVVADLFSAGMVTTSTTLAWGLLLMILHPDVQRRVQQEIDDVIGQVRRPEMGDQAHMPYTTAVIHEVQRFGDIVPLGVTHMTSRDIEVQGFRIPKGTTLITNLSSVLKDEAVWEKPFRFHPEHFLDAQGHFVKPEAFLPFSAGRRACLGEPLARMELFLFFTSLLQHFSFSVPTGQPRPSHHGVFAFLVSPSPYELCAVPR

[9] = test system: Rattus norvegicus; assay: In vivo inhibition of VAP-1 in Wistar rat plasma at 0.3 mg/kg, po after 1 hr in presence of [14C]-benzylamine by liquid scintillation counting analysis relative to control; type: functional
[10] = Oral bioavailability in Beagle dog at 0.2 mg/kg by LC-MS/MS analysis; type: ADME, organism-based, Canis lupus familiaris; details: in vivo
[11] = Total clearance in cynomolgus monkey at 0.2 mg/kg, iv by LC-MS/MS analysis; type: ADME, organism-based, Macaca fascicularis; details: in vivo
[12] = AUC in Sprague-Dawley rat at 1 mg/kg, iv by LC-MS/MS analysis; type: ADME, organism-based; details: in vivo
[13] = Half life in Beagle dog at 0.2 mg/kg, iv by LC-MS/MS analysis; type: ADME, organism-based, Canis lupus familiaris; details: in vivo
[14] = Half life in cynomolgus monkey at 0.2 mg/kg, iv by LC-MS/MS analysis; type: ADME, organism-based, Macaca fascicularis; details: in vivo
[15] = AUC in Beagle dog at 0.2 mg/kg, iv by LC-MS/MS analysis; type: ADME, organism-based, Canis lupus familiaris; details: in vivo
[16] = Tmax in Beagle dog at 0.2 mg/kg, po by LC-MS/MS analysis; type: ADME, organism-based, Canis lupus familiaris; details: in vivo
[17] = Volume of distribution at steady state in Sprague-Dawley rat at 1 mg/kg, iv by LC-MS/MS analysis; type: ADME, organism-based; details: in vivo, read-out: Vdss
[18] = AUC in Beagle dog at 0.2 mg/kg, po by LC-MS/MS analysis; type: ADME, organism-based, Canis lupus familiaris; details: in vivo
[19] = Total clearance in Sprague-Dawley rat at 1 mg/kg, iv by LC-MS/MS analysis; type: ADME, organism-based; details: in vivo
[20] = Cmax in cynomolgus monkey at 0.2 mg/kg, po by LC-MS/MS analysis; type: ADME, organism-based, Macaca fascicularis; set-up: dose 0.2 mg/kg, route oral; details: in vivo
[21] = Tmax in cynomolgus monkey at 0.2 mg/kg, po by LC-MS/MS analysis; type: ADME, organism-based, Macaca fascicularis; details: in vivo
[22] = AUC in cynomolgus monkey at 0.2 mg/kg, po by LC-MS/MS analysis; type: ADME, organism-based, Macaca fascicularis; details: in vivo
[23] = Volume of distribution at steady state in Beagle dog at 0.2 mg/kg, iv by LC-MS/MS analysis; type: ADME, organism-based, Canis lupus familiaris; details: in vivo, read-out: Vdss
[24] = biological target: CYP3A4 (Homo sapiens, UniProt P08684); assay: Inhibition of CYP3A4 in human liver microsomes using midazolam as substrate assessed as residual activity at 5 uM after 20 mins by HPLC analysis; type: ADME; details: probe midazolam, read-out: Activity
Chain of CYP3A4 (P08684 whole entry): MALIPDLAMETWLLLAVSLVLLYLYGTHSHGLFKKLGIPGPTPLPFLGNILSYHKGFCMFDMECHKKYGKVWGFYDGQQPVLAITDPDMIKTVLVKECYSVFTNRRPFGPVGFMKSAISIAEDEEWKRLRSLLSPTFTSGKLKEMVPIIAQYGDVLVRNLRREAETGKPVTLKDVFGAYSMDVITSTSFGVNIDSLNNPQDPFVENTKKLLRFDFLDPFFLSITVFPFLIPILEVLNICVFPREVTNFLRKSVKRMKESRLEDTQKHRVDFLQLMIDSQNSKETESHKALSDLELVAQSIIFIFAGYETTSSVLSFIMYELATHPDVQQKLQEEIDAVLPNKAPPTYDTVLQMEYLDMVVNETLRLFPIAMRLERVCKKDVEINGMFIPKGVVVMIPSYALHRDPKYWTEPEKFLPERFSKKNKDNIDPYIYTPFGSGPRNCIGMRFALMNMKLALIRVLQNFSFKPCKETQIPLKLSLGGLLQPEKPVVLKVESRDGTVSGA

[25] = biological target: CYP2C19 (Homo sapiens, UniProt P33261); assay: Inhibition of CYP2C19 in human liver microsomes using S-mephenytoin as substrate assessed as residual activity at 5 uM after 20 mins by HPLC analysis; type: ADME; details: probe S-mephenytoin, read-out: Activity
Chain of CYP2C19 (P33261 whole entry): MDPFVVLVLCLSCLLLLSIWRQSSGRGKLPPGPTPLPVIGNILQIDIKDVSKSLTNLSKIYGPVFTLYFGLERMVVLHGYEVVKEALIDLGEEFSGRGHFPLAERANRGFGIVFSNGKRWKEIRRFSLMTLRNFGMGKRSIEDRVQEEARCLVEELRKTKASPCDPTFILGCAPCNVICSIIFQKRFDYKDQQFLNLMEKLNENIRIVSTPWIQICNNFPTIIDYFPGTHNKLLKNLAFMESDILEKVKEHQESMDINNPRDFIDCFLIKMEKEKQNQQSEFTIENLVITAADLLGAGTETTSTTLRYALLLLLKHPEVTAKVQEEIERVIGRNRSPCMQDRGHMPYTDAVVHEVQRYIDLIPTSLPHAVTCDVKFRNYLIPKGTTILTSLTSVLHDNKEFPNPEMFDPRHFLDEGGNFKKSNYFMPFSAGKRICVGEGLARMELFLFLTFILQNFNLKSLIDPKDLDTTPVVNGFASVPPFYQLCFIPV

[26] = Tmax in Sprague-Dawley rat at 1 mg/kg, po by LC-MS/MS analysis; type: ADME, organism-based; details: in vivo
[27] = Cmax in Beagle dog at 0.2 mg/kg, po by LC-MS/MS analysis; type: ADME, organism-based, Canis lupus familiaris; set-up: dose 0.2 mg/kg, route oral; details: in vivo
[28] = Oral bioavailability in cynomolgus monkey at 0.2 mg/kg by LC-MS/MS analysis; type: ADME, organism-based, Macaca fascicularis; details: in vivo
[29] = Aqueous solubility of compound in Japanese pharmacopoeia second fluid at pH 6.8 at 130 uM after 20 hrs by HPLC analysis; type: physicochemical
[30] = biological target: T2, CYP1A2 (Homo sapiens, UniProt P05177); assay: Inhibition of CYP1A2 in human liver microsomes using phenacetin as substrate assessed as residual activity at 5 uM after 20 mins by HPLC analysis; type: ADME; details: probe phenacetin, read-out: Activity
T2 sequence (P05177 whole entry): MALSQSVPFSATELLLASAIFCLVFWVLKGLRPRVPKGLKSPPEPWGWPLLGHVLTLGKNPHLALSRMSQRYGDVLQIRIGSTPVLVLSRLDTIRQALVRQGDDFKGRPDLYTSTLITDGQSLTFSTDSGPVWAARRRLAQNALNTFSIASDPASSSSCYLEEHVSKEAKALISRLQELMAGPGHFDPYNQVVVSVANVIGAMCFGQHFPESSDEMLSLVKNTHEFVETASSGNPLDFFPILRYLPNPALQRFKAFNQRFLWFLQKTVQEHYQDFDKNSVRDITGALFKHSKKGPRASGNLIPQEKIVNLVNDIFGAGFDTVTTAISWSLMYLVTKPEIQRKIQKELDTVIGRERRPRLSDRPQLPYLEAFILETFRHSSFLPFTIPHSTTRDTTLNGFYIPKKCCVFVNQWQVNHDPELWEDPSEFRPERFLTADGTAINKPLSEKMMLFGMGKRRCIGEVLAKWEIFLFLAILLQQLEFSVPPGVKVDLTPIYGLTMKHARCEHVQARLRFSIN

[31] = Oral bioavailability in Sprague-Dawley rat at 1 mg/kg by LC-MS/MS analysis; type: ADME, organism-based; details: in vivo
[32] = AUC in Sprague-Dawley rat at 1 mg/kg, po by LC-MS/MS analysis; type: ADME, organism-based; details: in vivo

Cc1ccc(OC2CN(c3cccc(COC(=O)NC(=N)N)c3F)C2)cn1.O=C(O)C(O)C(O)C(=O)O
inhibition in vivo at 0.3 mg/kg [1]: 74%
AUC [2]: 5350 ng·h/mL
Cmax [3]: 401 ng/mL
Vd [4]: 1.39 L/kg
half-life [5]: 3.3 h
activity at 20 min, 5 µM [6]: 91%
clearance [7]: 8.9 mL/min/kg
activity at 20 min, 5 µM [8]: 95%
inhibition in vivo at 0.3 mg/kg [9]: 92%
bioavailability [10]: 78%
clearance [11]: 0.7 mL/min/kg
AUC [12]: 3200 ng·h/mL
half-life [13]: 8.9 h
half-life [14]: 64 h
AUC [15]: 380 ng·h/mL
Tmax [16]: 0.8 h
Vd [17]: 1.06 L/kg
AUC [18]: 297 ng·h/mL
clearance [19]: 5.2 mL/min/kg
Cmax [20]: 201 ng/mL
Tmax [21]: 2.7 h
AUC [22]: 4510 ng·h/mL
Vd [23]: 4.43 L/kg
activity at 20 min, 5 µM [24]: 85%
activity at 20 min, 5 µM [25]: 99%
Tmax [26]: 0.8 h
Cmax [27]: 29.9 ng/mL
bioavailability [28]: 85%
solubility at 20 h, 130 µM [29]: ≥ 100 µM
activity at 20 min, 5 µM [30]: 99%
bioavailability [31]: 73%
AUC [32]: 2320 ng·h/mL
